Source: publication PMC10525445, “Antitrypanosomal Activity of 1,2,3-Triazole-Based Hybrids Evaluated Using In Vitro Preclinical Translational Models” (Biology, 2023)
“Also recorded” adds a separate entry of the source. Where two headings read alike, the source gives them in different places.

Experiments:
Type in all cases: cell-based, Trypanosoma cruzi
[1] = test system: trypomastigote forms of T. cruzi (Dm28c-Luc); experiment: Trypanocidal activity against trypomastigotes (luciferase luminescence, 24 h); details: for Trypomastigotes SI: SI = CC50 of VERO cells/IC50 of trypomastigotes; for increase of activity compared with 1g (times): trypomastigotes
Procedure: (§1) A drug screen was carried out with Trypanosoma cruzi clone Dm28c genetically modified to express luciferase (Dm28c-luc), kindly provided by Dr. Cristina Henriques. The genetically modified T. cruzi clone Dm28c (Dm28c-Luc) has the firefly luciferase gene integrated into the genome, stably expressing the luminescent enzyme. The bioluminescent signal, proportional to the number of parasites, is produced by adding a D-luciferin substrate. Trypomastigotes were harvested from supernatants of VERO cell cultures, infected at a ratio of 10:1 parasite/host cells, 4 days post-infection (4 dpi). Parasites were used for phenotypic drug screening procedures. Luminescent parasites are a reliable and sensitive tool that allows precise quantification of parasite load. The use of genetically modified organisms was approved under license CQB 105/99.
All triazole analogs were analyzed for their biological activity against trypomastigote and intracellular amastigote forms of T. cruzi (Dm28c-Luc). Trypomastigotes (1.0 × 10^6 parasites/well) were incubated for 24 h at 37 °C with triazole derivatives and Bz at concentrations ranging from 0.04 to 100 µM. Luciferin (300 µg/mL), a luciferase substrate, was added to parasite suspensions to evaluate trypomastigotes viability. The luminescent signal was measured using a Glomax microplate reader. A maximal DMSO concentration (0.1%) was used as the negative control. The inhibitory concentration 50 (IC50) and 90 (IC90) against T. cruzi, which reduces the number of parasites by 50% and 90%, respectively, was calculated using linear regression. The selectivity index (SI), a ratio that measures the window between toxicity in mammalian cells and anti-T. cruzi activity (SI = CC50/IC50), was also determined.

[2] = test system: intracellular amastigote forms of T. cruzi (Dm28c-Luc); experiment: Activity against intracellular amastigotes in infected VERO cells (72 h); details: for Intracellular Amastigotes SI: SI = CC50 of VERO cells/IC50 of intracellular amastigotes; for IC50 / IC90: infected VERO cells, 72 h, mean ± SD; for IC50: read-out: Trypanocidal Activity Intracellular Amastigotes IC50; for IC90: read-out: Trypanocidal Activity Intracellular Amastigotes IC90
Procedure: as §1
Activity against intracellular amastigotes was determined in cultures of VERO cells infected by T. cruzi (24 h), as previously described. Briefly, infected cultures were treated for 72 h at 37 °C with different concentrations of triazole derivatives (0.04–100 µM). Then, the culture supernatant was removed, and the viability of the intracellular parasites was evaluated after adding luciferin (300 µg/mL) to the cell monolayer followed by reading using the microplate reader. Anti-T. cruzi activity (IC50 and IC90) and SI values were determined. All experimental assays were performed at least 3 times in duplicate.

[3] = test system: T. cruzi Dm28c-Luc in 3D cardiac spheroids; experiment: Drug efficacy in T. cruzi-infected 3D cardiac spheroids; details: 72 h, 15 to 30 times the IC50, 1f maximum 50 µM
Procedure: Primary heart muscle cell cultures were obtained from fetuses of female Swiss Webster mice, as previously described. After heart removal and ventricle fragmentation, tissue fragments were dissociated in a trypsin and collagenase type II (Worthington Biochemical Corporation, Lakewood, USA) dissociation solution. For two-dimensional (2D) cultures, the isolated cardiac cells were seeded at a density of 5 × 10^4 cells/well in gelatin (0.1%)-coated 96-well white culture plates. Three-dimensional (3D) cardiac spheroids were obtained after seeding isolated heart muscle cells at a density of 2.5 × 10^4 cells/well in an agarose (1%)-coated 96-well U-bottom plate, as described in [35]. Heart muscle cells cultures were cultivated in Dulbecco’s modified Eagle medium (DMEM) supplemented with 7% FBS, 2.5 mM CaCl2, 2% embryo extract, and 1 mM L-glutamin and maintained at 37 °C in a humidified atmosphere of 5% CO2. All procedures with animals were approved by the Animal Care and Use Committee at the Oswaldo Cruz Institute (license L-017/2022).
A three-dimensional cardiac model was applied as a cell culture platform to test the efficacy of promising candidates. […] Microtissues were also incubated with DMSO (0.1%) and Bz (100 µM) as negative and positive controls, respectively. After luciferin addition (300 µg/mL), the luminescence was measured, and the data were expressed as arbitrary luminescence units (ALU).

[4] = test system: T. cruzi (Dm28c-Luc)-infected VERO cells; experiment: Short-term washout assay (3 days treatment, 3 days without compound)
Procedure: A washout assay was performed to evaluate the capacity of the promising candidates to eliminate all parasites. Thus, VERO cells, seeded in 96-well plates at a density of 1.5 × 10^4 cells/well, were infected with T. cruzi (Dm28c-Luc) at a 10:1 parasite–host cell ratio (24 h). Two treatment schedules were performed: 3 days with 30, 50, and 100 µM concentrations and 10 days with 30 and 60 times the IC50 concentrations. After treatment, the cultures were washed with PBS and kept for the same period in RPMI 1640 medium supplemented with 10% FBS without compound pressure. The culture medium was changed every 3 or 4 days during the time course, and the supernatant was harvested for luminescence reading after luciferin (300 µg/mL) addition. At the endpoint, the monolayers were also evaluated for parasite load. The luminescent signal was read using a Glomax reader. Bz (100 µM) and DMSO (≤1%) were used as positive and negative controls, respectively.

[5] = test system: intracellular amastigote of T. cruzi Dm28c-Luc; experiment: Drug combination assay with Bz (isobologram); details: for xΣFICI (average of the sums of fractional inhibitory concentration index): combination with Bz, six ratios, additive xΣFICI > 0.5–1; for interaction with Bz: isobologram, intracellular amastigote
Procedure: The combination of promising candidates and Bz was performed using an isobologram method. Initial concentrations were determined by ensuring that IC50 concentrations of monotherapy compounds remained close to half in serial dilutions (1:3–6 concentrations). Solutions at the initial concentration of each compound were prepared and then mixed in proportions of 5:0, 4:1, 3:2, 2:3, 1:4, and 0:5 (v/v) of promising compounds and Bz, respectively. The anti-T. cruzi activity for the serial dilutions (1:3) of the ratios was then analyzed, as previously described. The IC50 values for each combination were used to determine the fractional inhibitory concentration index (FICI); thus, FICI(A) = IC50(A) in combination/IC50(A) alone and FICI(B) = IC50(B) in combination/IC50(B) alone. In addition, the sum of the FICIs for each proportion (∑FICI = FICI(A) + FICI(B)) and the average of the sums for the FICIs (xΣFICI) were calculated. The FICI values were plotted on an isobologram graph. The xΣFICI was applied as a classification criterion for interactions: as synergistic xΣFICI ≤ 0.5, additive xΣFICI > 0.5–1, without interaction xΣFICI > 1–4, and antagonistic for xΣFICI > 4.

[6] = Trypanosoma cruzi, Dm28c-Luc, 24 h, mean ± SD
[7] = Trypanosoma cruzi, Dm28c-Luc, 24 h, mean ± SD, read-out: Trypanocidal Activity Trypomastigotes IC50
[8] = Trypanosoma cruzi, Dm28c-Luc, 24 h, read-out: pIC50 against trypomastigotes (converted)

With c1ccc(-c2cn(-c3ccccc3)nn2)cc1 [Triazole 1g, 1-(4-Diphenyl)-1H-1,2,3-triazole] the “Trypomastigotes SI” value [1] was >219, the IC90 [1, 6] was > 100 µM and the IC50 [1, 7] was 2.28 ± 0.34 µM. For the same compound, the IC50 [1, 8] was 2.29 µM, the “Intracellular Amastigotes SI” value [2] was >80.6 and the IC50 ([2]; Trypanosoma cruzi) was 6.2 ± 1.06 µM. For the same compound, the IC90 ([2]; Trypanosoma cruzi) was > 100 µM, the “parasite load in 3D cardiac microtissue (luminescence)” value (“parasite load … (luminescence)” below) [3] was “did not effectively decrease the total number of viable intracellular parasites” and the “effect on parasite load / infection progression” value ([4]; 100 µM) was “did not significantly reduce the parasite load”. For the same compound, the “xΣFICI (average of the sums of fractional inhibitory concentration index)” value [5] was 0.90 and the “interaction with Bz” value [5] was “additive effect”.

“4-Phenyl-1-(m-tolyl)-1H-1,2,3-triazole [Triazole 1f]” was tested, and the pIC50 against trypomastigotes ([1]; Dm28c-Luc, 24 h) was 5.91, the IC90 ([1]; Dm28c-Luc, 24 h, mean ± SD) was 3.68 ± 0.6 µM and the IC50 ([1]; Dm28c-Luc, 24 h, mean ± SD, read-out: Trypanocidal Activity Trypomastigotes IC50) was 1.23 ± 0.24 µM. The “Trypomastigotes SI” value [1] was 70.5, the “increase of activity compared with 1g (times)” value [1] was 1.8 times and the “Intracellular Amastigotes SI” value [2] was 24.8. For the same compound, the IC50 [2] was 3.5 ± 0.39 µM, the IC90 [2] was 30.4 ± 0.4 µM and the “parasite load … (luminescence)” value [3] was “significantly inhibited the viability of the parasites; also recorded: significantly reduce the parasite load”. The “effect on parasite load” value ([4]; 30 µM) was “did not significantly reduce the parasite load”, the “fold reduction in parasite load compared to untreated cultures” value ([4]; 50 µM) was ~12 fold and the parasite resurgence ([4]; 50 µM) was “did not prevent parasite resurgence”. The “xΣFICI (average of the sums of fractional inhibitory concentration index)” value [5] was 0.88 and the “interaction with Bz” value [5] was “additive effect”.

COc1ccc(-n2cc(-c3ccccc3)nn2)cc1 [Triazole 1d, 1-(4-Methoxyphenyl)-4-phenyl-1H-1,2,3-triazole] was tested, and the “Trypomastigotes SI” value [1] was >2380, the IC90 [1, 6] was 2.9 ± 0.16 µM and the IC50 [1, 7] was 0.21 ± 0.03 µM. The IC50 [1, 8] was 0.214 µM, the “increase of activity compared with 1g (times)” value [1] was 11 times and the “Intracellular Amastigotes SI” value [2] was >152. For the same compound, the IC50 ([2]; Trypanosoma cruzi) was 3.27 ± 0.9 µM, the IC90 ([2]; Trypanosoma cruzi) was > 100 µM and the “parasite load … (luminescence)” value [3] was “significantly inhibited the viability of the parasites; also recorded: significantly reduce the parasite load”. The “fold reduction in parasite load compared to untreated cultures” value ([4]; 100 µM) was “approximately 10 fold”, the parasite resurgence ([4]; 100 µM) was “did not prevent parasite resurgence” and the “xΣFICI (average of the sums of fractional inhibitory concentration index)” value [5] was 0.93. The “interaction with Bz” value [5] was “additive effect”.
